Target: T1, T. congolense sialidase (EC 3.2.1.18)
T1 construct: native bloodstream-form enzyme, isolated and partially purified on a DEAE cellulose column
Assay: enzyme inhibition kinetics (fetuin substrate, thiobarbituric acid assay, double reciprocal plot) with partially purified enzyme
Type: biochemical, Trypanosoma congolense

`Oc1cc(O)cc(O)c1` [phloroglucinol] showed a Ki of 181 nM.

From PMC8781988, “Phloroglucinol as a Potential Candidate against Trypanosoma congolense Infection: Insights from In Vivo, In Vitro, Molecular Docking and Molecular Dynamic Simulation Analyses” (Molecules, 2022)
